Measured values: ChEMBL document CHEMBL1137140, “Synthesis and biological evaluation of the major metabolite of atomoxetine: elucidation of a partial kappa-opioid agonist effect” (Bioorg Med Chem Lett, 2004)

Tests used:
Nociceptin receptor = Nociceptin receptor (Homo sapiens, UniProt P41146); test: Inhibitory activity against Opioid receptor like 1 expressed in HEK293 cells; type: cell-based
[1] = Inhibitory activity against Opioid receptor kappa 1 expressed in HEK293 cells; type: cell-based, Homo sapiens
[2] = Inhibitory activity against Opioid receptor delta 1 expressed in HEK293 cells; type: cell-based, Homo sapiens
[3] = Inhibitory activity against Opioid receptor mu 1 expressed in HEK293 cells; type: cell-based, Homo sapiens

Chain of Nociceptin receptor (P41146 whole entry): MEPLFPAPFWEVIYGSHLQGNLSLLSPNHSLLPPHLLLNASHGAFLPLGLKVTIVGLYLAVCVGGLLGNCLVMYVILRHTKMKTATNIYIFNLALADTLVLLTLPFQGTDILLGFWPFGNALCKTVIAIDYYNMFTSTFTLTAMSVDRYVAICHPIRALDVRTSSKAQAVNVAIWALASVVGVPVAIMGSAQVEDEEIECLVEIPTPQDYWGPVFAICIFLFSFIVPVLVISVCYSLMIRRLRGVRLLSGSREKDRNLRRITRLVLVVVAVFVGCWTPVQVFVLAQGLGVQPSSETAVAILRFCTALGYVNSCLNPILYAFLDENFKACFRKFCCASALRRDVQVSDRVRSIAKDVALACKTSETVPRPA

Structure (SMILES)	IC50 (Nociceptin receptor)	IC50 [1]	IC50 [2]	IC50 [3]
CNCC[C@@H](Oc1ccc(O)cc1C)c1ccccc1	> 5 µM	0.088 µM	1.49 µM	0.164 µM
CNCC[C@@H](Oc1ccccc1C)c1ccccc1 [ATOMOXETINE]	> 5 µM	4.38 µM	> 5 µM	4.19 µM
